Patent publication US20120021988A1, “METHODS FOR TREATING IMMUNE THROMBOCYTOPENIA” (priority 2007, published 2012)
“And” between values parts separate entries of the source, which are not always exact repeats. Equal values may be shown once.

System: mice having induced ITP
Test: In vivo treatment of ITP induced by rabbit anti-platelet antibody, platelet counting by flow cytometry
Set-up: species or system CD-1 mice
Details: for Platelet counts, individual mice: intraperitoneal, 24 hours, listed as AP; for Platelet counts, mean: 3 mice, ITP alone mean 170.7, Nil 1016
Procedure: Mice: CD-1 mice approximately 6-8 weeks of age were obtained from Charles River (Montreal). The animals were housed 3-5 per cage in filter-topped cages. The temperature and relative humidity were maintained at […] and 35-70%, respectively, and a 12 hour light/dark cycle was used. The mice were fed rodent chow and water ad libitum.
Anti-platelet antibodies to induce ITP: A rabbit anti-platelet antibody (Inter-Cell Technologies, Inc., Jupiter, Fla.; Cat. No. A31440) was used to induce ITP. Each mouse received 10 μl antibody-containing serum, diluted with 190 μl PBS for injection, such that the final injection volume was 200 μl for all groups injected with anti-platelet antibody.
On the day of use, one vial of rabbit anti-platelet antibody was removed from the freezer, placed in a 22° C. water bath, and shaken. The tube was checked every 30 seconds, and when it was completely thawed it was placed in a microcentrifuge and centrifuged at 10,000×g (11,000 rpm) for 10 minutes at 4° C. The supernatant fluid was transferred to a new tube and the pellet was discarded. The supernatant was placed on ice until used or diluted, as appropriate. Unused portions of the sera were discarded.
Therapeutic treatment of ITP: IVIg was used as a standard control treatment for the ITP induced by the rabbit anti-platelet antibody. The IVIg was Gamimmune® N, 10%. Treatment with IVIg consisted of an intraperitoneal injection of 50 mg (500 μl) IVIg, a dose that was equivalent to a dose of 2,000 mg/kg body weight.
Platelet enumeration: All mice were bled via the saphenous vein. 50 μL of blood were collected into 450 μL PBS/1% EDTA. The blood was further diluted in PBS/1% EDTA. Platelets were enumerated by flow cytometry with a Guava microcapillary cytometer (Guava EasyCyteMini, Guava Technologies, Inc., Hayward, Calif.), using forward scatter (FSC) versus side scatter (SSC) to gate platelets.
Peptides used to inhibit ITP: Peptides having the amino acid sequences set forth in SEQ ID NO:2 ([…]), SEQ ID NO:20 ([…]), and a control peptide in which Trp7, Val13 and Trp14 of SEQ ID NO:20 were replaced by alanines ([…]; SEQ ID NO:57) were tested for their ability to inhibit ITP. Alanine substation of Val13 and Trp14 causes a decrease in binding affinity (measured by ΔΔG, where G=Gibbs Energy) of greater than 1,000 fold.
Peptides were stored at −20° C. until the day of use. On the day of use, peptides were removed from the freezer, placed in a 22° C. water bath, shaken, and checked every 30 seconds for thawing. When thawed, the peptides were placed on ice until use. For samples that received a 10× dose of peptide, the following were sequentially added to a 1.5 ml polypropylene Eppendorf tube: 623 μl PBS (pH 7.22), 35 μL rabbit anti-plaletet IgG, and 42 μl peptide, with mixing after each addition. For samples having a 100× dose of peptide, the following were added sequentially to a 1.5 ml polypropylene Eppendorf tube: 245 μl PBS (pH 7.22), 35 μL rabbit anti-plaletet IgG, and 420 μl peptide, with mixing after each addition. The peptides were incubated for at least 30 minutes at 22° C. prior to injection into mice. (A 15 minute incubation in the laboratory, transport of the mixtures to the Vivarium, and injection took roughly an additional 30 minutes.)
The final volume of each peptide mixture was 700 μL, which was sufficient for injection of 3 mice (200 μl/mouse, plus 100 μl to cover dead volume). For the 10× dose/mouse of peptide, 12 μg of peptide (12 μl of 1 mg/ml solution) was mixed with 100 μg of the rabbit anti-platelet IgG (10 μl of 10 mg/ml solution). The volume of 700 μl was about 3.5× the volume injected per mouse (200 μl). To obtain the dose of peptide and rabbit IgG for the 700 μl final volume, dose of peptide or Rabbit IgG per mouse was multiplied by 3.5 (e.g., 12 μl peptide/mouse×3.5=42 μl, 10 μl Rabbit IgG/mouse×3.5=35 μl). PBS (623 μl, pH 7.22) was added to make up the final volume 700 μl. […]

[1] = ITP + 10X molar amount of peptide
[2] = ITP + 100X molar amount of peptide

## Ala-Pro-Pro-Asp-Cys-Ala-Trp-His-Leu-Gly-Glu-Leu-Val-Trp-Cys-Thr (APPDCAWHLGELVWCT) [SEQ ID NO:20]
[1]
  Platelet counts, individual mice: 2.03e+11 L⁻¹ and 2.61e+11 L⁻¹ and 1.97e+11 L⁻¹
  Platelet counts, mean: 2.203e+11 L⁻¹
[2]
  Platelet counts, individual mice: 7.59e+11 L⁻¹ and 6.42e+11 L⁻¹ and 4.33e+11 L⁻¹
  Platelet counts, mean: 6.113e+11 L⁻¹
First experiment, 100× molar
  Effect on induced ITP, 100× versus 10×: greater effect than 10× Peptide AP
First experiment, Table 4, 10× and 100× molar
  Effect on induced ITP: ameliorated induced ITP
Second experiment, FIG. 1, 10× molar and 100× molar, 24 hours after treatment
  Amelioration of induced ITP/AITP compared with IVIg: ameliorated the induced ITP/AITP better than the currently accepted treatment for ITP (IVIg)
